The record followed here is PubChem BioAssay AID504313 (Emory University Molecular Libraries Screening Center, 2011).

SMILES strings stand for the structures. Activity calls are given as the source filed them. The rule behind the calls is not given here. Bounds are passed on as bounds.

For the experiment, the target named is X-box-binding protein 1 (Homo sapiens) (UniProt P17861). As to the kind of experiment: XBP1 reporter suppression in cells – counter-screen, dose response (AID 504313).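 Note: CHO cells carrying an XBP1 reporter stimulated with tunicamycin; potency is for inhibition of the tunicamycin-induced reporter signal.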 The note with it: XBP1 reporter cell assay, percent of control.
For `CCc1ccc(C(=O)/C=C/c2ccc([N+](=O)[O-])o2)cc1`, the IC50 was > 10 µM (inactive).

With `CCCCCCCCCCCCCCCC[n+]1ccc(/C=N/O)cc1`, the IC50 entry was “inactive”.

Take `COc1cccc(-n2nnnc2S(C)(=O)=O)c1`: the IC50 entry is “inactive”.

Consider `CCc1ccc(OCC(=O)NC(NC(=S)Nc2ccc(Cl)cc2)C(Cl)(Cl)Cl)cc1` (stereo unspecified), for which the IC50 result was “inactive”.

On to `C=C1C(=O)O[C@H]2C[C@@H](C)[C@@H]3C=CC(=O)[C@@]3(C)C[C@H]12`, for which the IC50 entry was “inactive”.

On to `S=c1[nH]nc(C2CCCCC2)n1/N=C/C=C/c1ccccc1`, for which the IC50 is > 10 µM (inactive).

In the case of `OC1(c2cccc(C(F)(F)F)c2)CCN(c2ncnc3c2[nH]c2ccc(F)cc23)CC1`, the IC50 was 3.86 µM.

For `CC1(c2ccccc2)CC(C)(C)N2C(=O)/C(=C3\SC(=S)NC3=O)c3cccc1c32` (stereo unspecified), the IC50 result is “inactive”.

As to `C/C(=N\NC(=O)COc1ccc(C(C)(C)C)cc1)c1ccc(N2CCOCC2)cc1`, the IC50 entry was “inactive”.

With `Cc1ccc(N=Cc2cc3c(cc2O)OC(N)=C(C#N)C3c2ccccc2)cc1` (stereo unspecified), the IC50 is > 10 µM (inactive).

Take `O=C(Nc1cc(N2CCOCC2)ncn1)NC1(C(F)(F)F)Oc2ccc(Cl)cc2O1` (stereo unspecified): the IC50 was > 10 µM (inactive).

As for `CCOC(=O)/C=C/S(=O)(=O)c1ccc(NC(C)=O)cc1`, the IC50 entry is “inactive”.

With `NC(=O)c1ccc(C(F)(F)F)n(Cc2c(Cl)cccc2Cl)c1=O`, the IC50 result is “inactive”.

For `C#CC(=O)N(c1cc(OC)ccc1OC)C(C(=O)NC1CCCC1)c1cccs1` (stereo unspecified), the IC50 entry was “inactive”.

Take `O=c1c(Cl)nc2cc(Cl)ccc2n1CCNc1ncc(C(F)(F)F)cc1Cl`: the concentration for half-maximal inhibition (IC50) was 4.7 µM.

On to `Cc1nc(SCC(=O)Nc2ccc(F)cc2)c(C#N)c(C)c1CC(=O)c1ccc(Br)cc1`, for which the IC50 is > 10 µM (inactive).

Turning to `COc1ccc(NC(=O)/C(Cl)=C(/Cl)S(=O)Cc2ccc(Cl)cc2)cn1` (stereo unspecified), the half-maximal inhibitory concentration (IC50) was 3.27 µM.

As to `CC1=Nc2nc(N3CCCCC3)c(C#N)c3c4c(nc(c23)N1)N(c1ccc(C(C)C)cc1)C(=O)C4`, the IC50 result is “inactive”.

Take `Clc1ccc2[nH]c(-c3ccccc3)cc2c1`: the IC50 was > 10 µM (inactive).

Take `Cc1ccc(-c2nc(-c3ccccn3)no2)cc1`: the IC50 entry was “inactive”.

`COc1cc(/C=C/C(=O)OC2CC3CCC2(C)C3(C)C)ccc1O` (stereo unspecified): the IC50 was > 10 µM (inactive).

Take `CCSCCc1nnc(NC(=O)Nc2cccc(C(F)(F)F)c2)s1`: the IC50 was 4.74 µM.

As to `CC(C)(C)c1cc(CN2CCCC(O)C2)c(O)c(C(C)(C)C)c1` (stereo unspecified), the IC50 entry is “inactive”.

For `COc1ccc(N2C(=O)CC(Sc3nnnn3-c3ccc(F)cc3)C2=O)cc1` (stereo unspecified), the IC50 is > 10 µM (inactive).

Consider `O=C(Nc1ccc(F)cc1)Nc1ccc(N2CCCC2)c(S(=O)(=O)Nc2ccccc2Cl)c1`, for which the IC50 entry is “inactive”.

Turning to `FC(F)(F)c1cccc(NC(=S)N2CCN(c3cccc(C(F)(F)F)c3)CC2)c1`, the IC50 is 4.52 µM.

`COC(=O)[C@@H]1[C@@H](C(=O)OC)C2(c3ccccc3-c3ccccc32)N(c2ccc(Cl)cc2)N1C#N`: the IC50 is > 10 µM (inactive).

As to `Oc1ccc(/C=N/Nc2nc(-c3ccc(Cl)cc3)cc(C(F)(F)F)n2)cc1`, the IC50 is > 10 µM (inactive).

For the compound `C#CC(=O)N(c1ccc(OC)c(OC)c1)C(C(=O)NC1CCCC1)c1cccs1` (stereo unspecified), the IC50 entry was “inactive”.

With `COC(=O)[C@]12OC[C@]34C([C@@H](O)[C@@H]1O)[C@]1(C)CC(=O)C(O)=C(C)[C@@H]1C[C@H]3OC(=O)[C@H](O)[C@@H]24` (stereo partly specified), the IC50 entry was “inactive”.

For `C=C(C)C(=O)OC1(C(F)(F)F)Oc2cc(C)ccc2NC1=O` (stereo unspecified), the IC50 entry is “inactive”.

Regarding `O=C(CCl)N(Cc1cccc([N+](=O)[O-])c1)c1cccc(Cl)c1`, the IC50 entry is “inactive”.

For the compound `Cc1ccc2[nH]c3c(c2c1)CN(C(=O)CN1CCN(c2cccc(C)c2C)CC1)CC3`, the IC50 is > 10 µM (inactive).

In the case of `O=[N+]([O-])c1ccc(/C=N/n2c(C3CCCCC3)n[nH]c2=S)cc1`, the IC50 is > 10 µM (inactive).

On to `CC(C)Oc1cc(NC(=O)CS(=O)CC(=O)Nc2cccc(C(F)(F)F)c2)c(Cl)cc1Cl` (stereo unspecified), for which the IC50 entry was “inactive”.

With `COc1ccc(C(=O)/C=C/C(=O)N(CC(=O)NCCC(C)C)Cc2cccs2)c(O)c1`, the IC50 entry was “inactive”.

As to `COc1ccc(C2=NN(C(=O)c3ccco3)C(c3cc4ccccc4nc3Cl)C2)cc1` (stereo unspecified), the IC50 is > 10 µM (inactive).

Turning to `Cc1ccc(COc2ccc(Br)cc2/C=N/O)cc1`, the IC50 is > 10 µM (inactive).

`O=c1[nH]c(NNC(=S)NC2CCCCC2)nc2c1C1(CCCC1)Cc1ccccc1-2`: the IC50 was > 10 µM (inactive).

On to `CC(C)(C)C(=O)NC(NC(=S)Nc1sc2c(c1C#N)CCCC2)C(Cl)(Cl)Cl` (stereo unspecified), for which the IC50 was > 10 µM (inactive).

As to `O=Cc1s/c(=N\S(=O)(=O)c2ccccc2)n(CCCCl)c1Cl`, the IC50 entry was “inactive”.

In the case of `Nc1c(S(=O)(=O)c2cccc(Cl)c2)c2nc3ccccc3nc2n1/N=C/c1ccc(O)c(O)c1`, the IC50 was > 10 µM (inactive).

With `Cc1sc(NC(=O)c2cccc([N+](=O)[O-])c2)c(C(N)=O)c1-c1ccc(C(C)(C)C)cc1`, the half-inhibitory concentration (IC50) was 4.11 µM.

Turning to `CCCNC(=O)c1nnsc1S(=O)c1ccc(Cl)cc1` (stereo unspecified), the IC50 result was “inactive”.

For the compound `O=C(Nc1ccc(Cl)c(C(F)(F)F)c1)NC1CC2CCCC(C1)N2Cc1ccccc1` (stereo unspecified), the IC50 was > 10 µM (inactive).

`Cc1ccc(C(=O)CC(=O)c2cc(Cl)ccc2O)cc1`: the IC50 result is “inactive”.

For `O=C(NNC(=O)c1cccc2ccccc12)c1ccc(-c2ccccc2)cc1`, the IC50 is > 10 µM (inactive).

Turning to `O=C(Nc1ccc(C(F)(F)F)cc1)c1cc(-c2cccnc2)nc2ccc(Br)cc12`, the IC50 is > 10 µM (inactive).

Turning to `O=S(=O)(NCC(Nc1ccc(Cl)cc1)c1ccccc1)c1ccc(Cl)cc1` (stereo unspecified), the IC50 is > 10 µM (inactive).

As for `CC1(c2ccccc2)CC(C)(C)N2C(=O)C3(C(C#N)=C(N)Oc4cc(O)ccc43)c3cccc1c32` (stereo unspecified), the IC50 is > 10 µM (inactive).

`Cc1cccnc1NC(=O)c1c(O)c2ccccc2n(C)c1=O`: the IC50 result was “inactive”.

With `O=C(NC(c1ccccc1)c1c(O)ccc2ccccc12)c1ccccc1Cl` (stereo unspecified), the IC50 result was “inactive”.

As to `CCCCS(=O)(=O)/C=C\C=C/S(=O)(=O)CCCC`, the half-maximal inhibitory concentration (IC50) was 2.68 µM.

Turning to `CCCCCCCCNC(C)C(O)c1ccc(SC(C)C)cc1` (stereo unspecified), the concentration for half-maximal inhibition (IC50) is 4.76 µM.

In the case of `N#CC1=C(N)N2C(=C(C#N)C1c1cccc(Br)c1)Nc1ccccc12` (stereo unspecified), the IC50 entry is “inactive”.

For `CCc1ccc(NP(=O)(Oc2ccccc2F)Oc2ccccc2F)cc1`, the IC50 was > 10 µM (inactive).

`O=C(Nc1ccc(Cl)cc1)Nc1ccc(N2CCCC2)c(S(=O)(=O)Nc2ccccc2Cl)c1`: the IC50 result was “inactive”.

On to `CCc1ccc(-c2cc(C(=O)N3N=C(C(F)F)CC3(O)C(F)F)c3ccccc3n2)cc1` (stereo unspecified), for which the IC50 result is “inactive”.

Regarding `CC(C)c1ccc(O)c(NC(=S)NC(=O)CCc2ccccc2)c1`, the IC50 entry is “inactive”.

`CC(CNC(=S)Nc1cc(F)cc(F)c1)CSc1ccc(Cl)cc1` (stereo unspecified): the IC50 was > 10 µM (inactive).

As for `O=C(Nc1nccs1)c1cc2c(s1)CCCCC2`, the IC50 is > 10 µM (inactive).

`CCOc1cc(C)c(-c2onc(C(F)(F)F)c2-c2csc(C)n2)c(O)c1`: the IC50 result was “inactive”.

Take `Nc1cc(Cl)c2nonc2c1[N+](=O)[O-]`: the IC50 entry was “inactive”.

For `CCOc1cc(S(=O)(=O)Nc2ccccc2CC)ccc1Cl`, the IC50 was > 10 µM (inactive).

Consider `Cc1cc(/C=N/n2cnnc2)c(C)n1-c1ccc(OCc2ccc(Cl)cc2Cl)cc1`, for which the IC50 was 0.35 µM.

As to `COc1cccc(-c2nnc(NC(=O)c3ccc(S(=O)(=O)N(CC(C)C)CC(C)C)cc3)o2)c1`, the IC50 entry is “inactive”.

`CC(C)(C)c1ccc(C2CC2C(=O)N/N=C\c2ccc[nH]2)cc1` (stereo unspecified): the IC50 entry is “inactive”.

With `CC(=O)C(C(C)=O)c1c(Cl)c(O)c(O)c2c(C(=O)c3ccccc3)coc12`, the IC50 result is “inactive”.

For `Cc1cc(C)c2nc(C(F)(F)F)c(C#N)c(N)c2c1`, the IC50 is > 10 µM (inactive).

Turning to `CC(C)(C)c1ccc(C(=O)Nc2ccc(CC(=O)O)cc2)o1`, the IC50 was less than 0.16 µM.

With `Cc1ccc(-c2nc(C(Cl)Cl)c3ccccc3n2)cc1`, the concentration for half-maximal inhibition (IC50) is 5.22 µM.

Regarding `Cc1nnc(NC(=O)c2sc3nc(-c4cccs4)cc(C(F)(F)F)c3c2N)s1`, the IC50 entry is “inactive”.

In the case of `Cc1cc(C2=NNC(=NC3CC3)SC2)c(C)n1-c1ccccc1`, the IC50 was < 0.16 µM (inactive).

On to `CCOC(=O)C1=C(O)/C(=C/c2ccc(CNC(=O)C(=O)Nc3ccc(C)cc3)o2)N=C1C`, for which the IC50 was > 10 µM (inactive).

With `O=C(NCCNC(=O)c1cc(OCC(F)(F)F)ccc1OCC(F)(F)F)Nc1cccc(C(F)(F)F)c1`, the IC50 is > 10 µM (inactive).

As for `Cc1ccc(NC(=O)c2nc[nH]c2C(=O)N[C@@H](C)C(=O)OC(C)(C)C)cc1`, the half-maximal inhibitory concentration (IC50) was 4.14 µM.

With `CN(C)CCCn1c(SCC(=O)Nc2nc(-c3cccc(Br)c3)cs2)nc2ccccc2c1=O`, the IC50 is > 10 µM (inactive).

Consider `O=S(=O)(C/C(=C/CO)S(=O)(=O)c1ccccc1)c1ccccc1`, for which the IC50 is 3.44 µM.

For `O=C(Cc1csc(Nc2nc(=S)[nH]c3ccccc23)n1)NCCCN1CCN(c2ccccc2F)CC1`, the IC50 is > 10 µM (inactive).

For `Cc1cccc(NS(=O)(=O)c2ccc(C3CCCCC3)cc2)c1`, the IC50 is 4.03 µM.

With `O=C(Cn1c(C(F)(F)F)nc2ccccc21)N=Nc1c(O)[nH]c2ccc(Br)cc12`, the IC50 was > 10 µM (inactive).

Turning to `C/C=C(\C)C(=O)OC1C(C)=C2C(C1OC(=O)CCCCC)C(C)(OC(C)=O)CC(OC(=O)CCC)C1(O)C2OC(=O)C1(C)O` (stereo unspecified), the IC50 was 5.03 µM.

For `O=C1C=CC(=O)N1CCCCCCN1C(=O)C=CC1=O`, the IC50 entry was “inactive”.

Regarding `Cc1ccc(Cl)cc1NC1=C/C(=N\S(=O)(=O)c2cccs2)c2ccccc2C1=O`, the IC50 entry was “inactive”.

For `O=C(OCn1ncc(Br)c(Br)c1=O)c1ccccc1Cl`, the IC50 is 4.81 µM.

In the case of `Cc1cc(C)c(S(=O)(=O)ON2C(=O)c3ccccc3C2=O)cc1C`, the IC50 is > 10 µM (inactive).
